Counter-ions that a name gives are not always drawn.
Legend:
Assay type in all cases: in vivo
[1] = system: prickly sida (Sida spinosa L.); test: Test Example 2: foliar treatment of potted prickly sida, visual growth inhibition rate; conditions: 14th day after treatment, read-out: Growth inhibition rate (%) of prickly sida Measured value
Procedure: Upland field soil was put into a 1/1,000,000 ha pot, and seeds of prickly sida (Sida spinosa L.) were sown. When the prickly sida reached 5.5 to 5.8-leaf stage, predetermined amounts of a wettable powder containing pyridate as an active ingredient (tradename: Lentagran WP, manufactured by BCP) and ONEHOPE NYUZAI (tradename) were diluted with water in an amount of corresponding to 1,000 L/ha and applied for foliar treatment by a small sprayer.
(§1) On the 14th day after treatment, the state of growth of the prickly sida was visually observed to determine the growth inhibition rate (%). The growth inhibition rate (%) (measured value) and the growth inhibition rate (%) calculated in the same manner as in the above Test Example 1 are shown in Table 2.

[2] = system: persian speedwell (Veronica persica Poir.); test: Test Example 6: foliar treatment of potted persian speedwell, visual growth inhibition rate; conditions: 14th day after treatment, read-out: Growth inhibition rate (%) of persian speedwell Measured value
Procedure: (§2) Upland field soil was put into a 1/1,000,000 ha pot, and seeds of persian speedwell (Veronica persica Poir.) were sown. When the persian speedwell reached 4.3 to 5.2-leaf stage, predetermined amounts of EC formulation containing pyridate as an active ingredient and ONEHOPE NYUZAI (tradename) were diluted with water (in an amount corresponding to 300 L/ha) and applied for foliar treatment by a small sprayer.
as §1, with “persian speedwell” for “prickly sida”, “6.” for “2.”

[3] = system: green kyllinga (Kyllinga brevifolia Rottb. var. leiolepis); test: Test Example 1: foliar treatment of potted green kyllinga in heading stage, visual growth inhibition rate
Description: When the herbicidal activity in a case where two active ingredients are combined, is larger than the simple sum of the respective herbicidal activities of the two active ingredients (the expected activity), it is called a synergistic effect. The activity expected by the combination of two active ingredients can be calculated as follows (Colby S. R., “Weed”, vol. 15, p. 20-22, 1967). E=(α+β)−(αβ)/100 where α: growth inhibition rate when treated with x (g/ha) of herbicide X,
β: growth inhibition rate when treated with y (g/ha) of herbicide Y,
E: growth inhibition rate expected when treated with x (g/ha) of herbicide X and y (g/ha) of herbicide Y.
That is, when the actual growth inhibition rate (measured value) is larger than the growth inhibition rate by the above calculation (calculated value), the activity by the combination can be regarded as showing a synergistic effect.
Upland field soil was put into a 1/1,000,000 ha pot, and rhizomes of green kyllinga (Kyllinga brevifolia Rottb. var. leiolepis) were planted. On the 59th day after planting, to the green kyllinga in heading stage, predetermined amounts of EC formulation containing pyridate as an active ingredient (tradename: Pyridate 600EC, manufactured by BCP), WG formulation containing flazasulfuron as an active ingredient (tradename: SHIBAGEN DF, manufactured by Ishihara Sangyo Kaisha, Ltd.), WG formulation containing trifloxysulfuron Na salt as an active ingredient (tradename: Monument WG, manufactured by Syngenta Japan K.K.), SC formulation containing nicosulfuron as an active ingredient (tradename: ONEHOPE NYUZAI, manufactured by Ishihara Sangyo Kaisha, Ltd.), WG formulation containing halosulfuron-methyl as an active ingredient (tradename: INPOOL DF, manufactured by Nissan Chemical Industries, Ltd.) and WG formulation containing chlorimuron-ethyl as an active ingredient (tradename: ATTRACTIVE, manufactured by MARUWA Biochemical Co., Ltd.) were diluted with water in an amount corresponding to 2,000 L/ha, and applied for foliar treatment by a small sprayer.
On the 14th day after treatment, the state of growth of the green kyllinga was visually observed to determine the growth inhibition rate (%) in accordance with the following evaluation standard. The growth inhibition rate (%) (measured value) and the growth inhibition rate (%) (calculated value) calculated by the Colby's formula are shown in Table 1.
Growth inhibition rate (%)=0 (equivalent to the non-treated area) to 100 (complete kill)

[4] = system: summer grass (Digitaria ciliaris (Retz.) Koeler); test: Test Example 8: foliar treatment of potted summer grass, visual growth inhibition rate on 14th day; conditions: read-out: Growth inhibition rate (%) of summer grass Measured value
Description: Upland field soil was put into a 1/1,000,000 ha pot, and seeds of summer grass (Digitaria ciliaris (Retz.) Koeler) were sown.

[5] = system: green kyllinga (Kyllinga brevifolia Rottb. var. leiolepis); test: Test Example 3: foliar treatment of green kyllinga at 5-leaf stage, visual growth inhibition rate; conditions: Cyperus brevifolius, 21st day after treatment
Procedure: (§3) Upland field soil was put into a 1/1,000,000 ha pot, and rhizomes of green kyllinga (Kyllinga brevifolia Rottb. var. leiolepis) were planted. When the green kyllinga reached 5-leaf stage, a predetermined amount of EC formulation containing pyridate as an active ingredient was diluted with water (in an amount corresponding to 2,000 L/ha) and applied for foliar treatment by a small sprayer.
On the 21st day after treatment, the state of growth of the green kyllinga was visually observed to determine the growth inhibition rate (%).

[6] = system: manilagrass (Zoysia matrella (L.) Merr.); test: Test Example 10: foliar treatment of manilagrass turf, visual growth inhibition rate (safety for turfgrass); conditions: for Growth inhibition rate (%) of manilagrass: foliar, 28th day after treatment
Procedure: (§4) Upland field soil was put into a 1/1,000,000 ha pot, and rhizomes of green kyllinga (Kyllinga brevifolia Rottb. var. leiolepis) were planted. When the green kyllinga reached a height of from 6 to 7 cm, predetermined amounts of Lentagran WP (tradename) and WG formulation containing as an active ingredient amicarbazone having the same mode of action as pyridate (tradename: Dinamic, manufactured by Arysta Life Science) were diluted with water (in an amount corresponding to 2,000 L/ha) and applied for foliar treatment by a small sprayer. Separately, upland field soil was put into a 1/300,000 ha pot, and turf of manilagrass (Zoysia matrella (L.) Merr.) was put. After the manilagrass took root, predetermined amounts of Lentagran WP (tradename) and Dinamic (tradename) were diluted with water (in an amount corresponding to 2,000 L/ha) and applied for foliar treatment by a small sprayer.
(§5) On the 27th day after treatment, the state of growth of green kyllinga was visually observed, and on the 28th day after treatment, the state of growth of the manilagrass was visually observed, to determine the growth inhibition rate (%).

[7] = system: green kyllinga (Kyllinga brevifolia Rottb. var. leiolepis); test: Test Example 10: foliar treatment of green kyllinga (height 6 to 7 cm), visual growth inhibition rate; conditions: 27th day after treatment
Procedure: as §4, §5

[8] = system: summer grass (Digitaria ciliaris (Retz.) Koeler); test: Test Example 7: foliar treatment of potted summer grass, visual growth inhibition rate on 7th day; conditions: 7th day after treatment
Procedure: as §2, with “summer grass (Digitaria ciliaris (Retz.) Koeler)” for “persian speedwell (Veronica persica Poir.)”, “summer grass” for “persian speedwell”, “4.0” for “4.3”, “5.0-leaf” for “5.2-leaf”, “Monument WG” for “ONEHOPE NYUZAI”
as §1, with “7th” for “14th”, “summer grass” for “prickly sida”, “7.” for “2.”

[9] = system: green kyllinga (Kyllinga brevifolia Rottb. var. leiolepis); test: Test Example 5: autumn foliar treatment of green kyllinga, visual growth inhibition rate on 220th day; conditions: Cyperus brevifolius, 220th day after treatment
Procedure: as §3, with “1/300,000” for “1/1,000,000”, “In” for “When”, “autumn of the next year,” for “green kyllinga reached 5-leaf stage,”
On the 220th day after treatment, the state of growth of the green kyllinga was visually observed to determine the growth inhibition rate (%).

[10] = system: green kyllinga (Kyllinga brevifolia Rottb. var. leiolepis); test: Test Example 4: single or repeated foliar treatment of green kyllinga (height 5 to 7 cm), visual growth inhibition rate; conditions: Cyperus brevifolius, 21st day after first treatment
Procedure: as §3, with “a height of from 5 to 7 cm,” for “5-leaf stage,”, “sprayer. Further, on the 7th day after the foliar treatment, second treatment was carried out in the same manner on part of the green kyllinga.” for “sprayer.”
On the 21st day after the first treatment, the state of growth of the green kyllinga was visually observed to determine the growth inhibition rate (%).

[11] = Cyperus brevifolius, read-out: Growth inhibition rate (%) of green kyllinga Measured value

COc1cc(OC)nc(NC(=O)NS(=O)(=O)c2ncccc2C(=O)N(C)C)n1 [Nicosulfuron, 2-(4,6-dimethoxypyrimidin-2-ylcarbamoylsulfamoyl)-N,N-dimethylnicotinamide]
inhibition at 15 g/ha ([1]; dose 15 g/ha): 30%
inhibition at 100 g/ha ([2]; dose 100 g/ha): 5%
inhibition at 80 g/ha ([3]; Cyperus brevifolius, dose 80 g/ha, 14th day after treatment, read-out: Growth inhibition rate (%) of green kyllinga Measured value): 15%

CCCCCCCCSC(=O)Oc1cc(Cl)nnc1-c1ccccc1 [Pyridate, O-6-chloro-3-phenylpyridazin-4-yl S-octylthiocarbonate]
inhibition at 3000 g/ha ([4]; dose 3000 g/ha, 14th day after treatment): 50%
inhibition at 1200 g/ha ([5]; dose 1200 g/ha): 90%
inhibition at 2400 g/ha ([5]; dose 2400 g/ha): 100%
Growth inhibition rate (%) of manilagrass ([6]; dose 2000 g/ha): 5%
Growth inhibition rate (%) of manilagrass ([6]; dose 4000 g/ha): 15%
Growth inhibition rate (%) of manilagrass ([6]; dose 8000 g/ha): 15%
safety for turfgrass ([6]; practical doses, summary of Table 9): high safety for turfgrass
inhibition at 300 g/ha ([1]; dose 300 g/ha): 38%
inhibition at 2000 g/ha ([7]; Cyperus brevifolius, dose 2000 g/ha): 76%
inhibition at 4000 g/ha ([7]; Cyperus brevifolius, dose 4000 g/ha): 94%
inhibition at 300 g/ha ([2]; dose 300 g/ha): 70%
inhibition at 300 g/ha ([8]; Digitaria ciliaris, dose 300 g/ha, read-out: Growth inhibition rate (%) of summer grass Measured value): 8%
inhibition at 2000 g/ha ([9]; dose 2000 g/ha): 100%
inhibition at 4000 g/ha ([9]; dose 4000 g/ha): 100%
inhibition at 1200 g/ha ([10]; 1st treatment 1200 g/ha, 2nd treatment 1200 g/ha on 7th day): 100%
inhibition at 2400 g/ha ([10]; 1st treatment 2400 g/ha, no 2nd treatment): 87%
inhibition at 3600 g/ha ([10]; 1st treatment 3600 g/ha, no 2nd treatment): 89%
inhibition at 500 g/ha ([3]; Cyperus brevifolius, dose 500 g/ha, 14th day after treatment, read-out: Growth inhibition rate (%) of green kyllinga Measured value): 18%
inhibition at 2000 g/ha ([3]; Cyperus brevifolius, dose 2000 g/ha, 14th day after treatment, read-out: Growth inhibition rate (%) of green kyllinga Measured value): 50%

CC(C)c1nn(C(=O)NC(C)(C)C)c(=O)n1N [Amicarbazone, amicarbazone]
Growth inhibition rate (%) of manilagrass ([6]; dose 800 g/ha): 30%
Growth inhibition rate (%) of green kyllinga ([7]; dose 400 g/ha): 30%
Growth inhibition rate (%) of green kyllinga ([7]; dose 800 g/ha): 86%

CCOC(=O)c1ccccc1S(=O)(=O)NC(=O)Nc1nc(Cl)cc(OC)n1 [Chlorimuron-ethyl, chlorimuron-ethyl]
inhibition at 100 g/ha [3, 11]: 18%

COC(=O)c1c(Cl)nn(C)c1S(=O)(=O)NC(=O)Nc1nc(OC)cc(OC)n1 [Halosulfuron-methyl, halosulfuron-methyl]
inhibition at 150 g/ha [4]: 0%
inhibition at 375 g/ha [3, 11]: 10%

COc1cc(OC)nc(NC(=O)NS(=O)(=O)c2ncccc2C(F)(F)F)n1 [Flazasulfuron, 1-(4,6-dimethoxypyrimidin-2-yl)-3-(3-trifluoromethyl-2-pyridylsulfonyl)urea]
inhibition at 50 g/ha ([3]; Cyperus brevifolius, dose 50 g/ha, 14th day after treatment, read-out: Growth inhibition rate (%) of green kyllinga Measured value): 33%

COc1cc(OC)nc(NC(=O)NS(=O)(=O)c2ncccc2OCC(F)(F)F)n1 [Trifloxysulfuron Na salt]
Growth inhibition rate (%) of summer grass Measured value ([8]; dose 100 g/ha): 40%
Growth inhibition rate (%) of green kyllinga Measured value ([3]; dose 45 g/ha, 14th day after treatment): 15%

Source: patent publication US9339038B2, “Herbicidal composition” (priority 2012, dated 2016)
